Literature values, collected in patent US8741809B2, “Liquid pyraclostrobin-containing crop protection formulations” (BASF SE, priority 2008, dated 2014).

details: at 20° C.

SMILES	solubility of the respective solvent in water
OCc1ccccc1 [benzyl alcohol]	(39 g/l)
O=C1CCCCC1 [cyclohexanone]	(24 g/l)
CC(=O)c1ccccc1 [acetophenone]	(5.5 g/l)
